Experimental data reported in PubChem BioAssay (NCI).
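Protocol summary: plate cells (96-well), add compound at 5 concentrations, incubate 48 h, interpolate endpoints linearly. TGI denotes the concentration required for complete inhibition of growth.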

What was measured:
Assay in all cases: NCI-60 cell line screen, 48 h
CCRF-CEM leukemia = system: CCRF-CEM leukemia
MALME-3M melanoma = system: MALME-3M melanoma
SK-OV-3 ovarian = system: SK-OV-3 ovarian
UO-31 renal = system: UO-31 renal
U251 CNS = system: U251 CNS
MCF7 breast = system: MCF7 breast
786-0 renal = system: 786-0 renal
SW-620 colon = system: SW-620 colon
MDA-MB-231 breast = system: MDA-MB-231 breast
SR leukemia = system: SR leukemia
MOLT-4 leukemia = system: MOLT-4 leukemia
T-47D breast = system: T-47D breast
SF-295 CNS = system: SF-295 CNS
TK-10 renal = system: TK-10 renal
NCI-H23 lung = system: NCI-H23 lung
IGROV1 ovarian = system: IGROV1 ovarian
SN12C renal = system: SN12C renal
KM12 colon = system: KM12 colon
OVCAR-5 ovarian = system: OVCAR-5 ovarian
SK-MEL-5 melanoma = system: SK-MEL-5 melanoma
SNB-75 CNS = system: SNB-75 CNS
NCI-H460 lung = system: NCI-H460 lung
A549 NSCLC = system: A549 NSCLC
HOP-62 NSCLC = system: HOP-62 NSCLC
UACC-257 melanoma = system: UACC-257 melanoma
A498 renal = system: A498 renal
NCI/ADR-RES ovarian = system: NCI/ADR-RES ovarian
ACHN renal = system: ACHN renal
RPMI-8226 leukemia = system: RPMI-8226 leukemia
PC-3 prostate = system: PC-3 prostate
UACC-62 melanoma = system: UACC-62 melanoma
M14 melanoma = system: M14 melanoma
EKVX NSCLC = system: EKVX NSCLC
HL-60(TB) leukemia = system: HL-60(TB) leukemia
COLO 205 colon = system: COLO 205 colon
RXF 393 renal = system: RXF 393 renal
NCI-H226 lung = system: NCI-H226 lung
LOX IMVI melanoma = system: LOX IMVI melanoma
OVCAR-4 ovarian = system: OVCAR-4 ovarian
DU-145 prostate = system: DU-145 prostate
SK-MEL-28 melanoma = system: SK-MEL-28 melanoma
OVCAR-8 ovarian = system: OVCAR-8 ovarian
SK-MEL-2 melanoma = system: SK-MEL-2 melanoma
SNB-19 CNS = system: SNB-19 CNS
HCT-116 colon = system: HCT-116 colon
SF-539 CNS = system: SF-539 CNS
MDA-N = system: MDA-N
HT29 colon = system: HT29 colon
SF-268 CNS = system: SF-268 CNS
CAKI-1 renal = system: CAKI-1 renal
HCC-2998 colon = system: HCC-2998 colon
OVCAR-3 ovarian = system: OVCAR-3 ovarian
BT-549 breast = system: BT-549 breast

`O=Cc1cc2c(o1)C(=O)c1ccccc1C2=O` showed a TGI (CCRF-CEM leukemia) of 6400 nM, a TGI (MALME-3M melanoma) of 370 nM and a TGI (SK-OV-3 ovarian) of 9570 nM. For the same molecule, the TGI (UO-31 renal) was 4600 nM, the TGI (U251 CNS) was 2730 nM and the TGI (MCF7 breast) was 581 nM. The TGI (786-0 renal) was 2900 nM, the TGI (SW-620 colon) was 1020 nM and the TGI (MDA-MB-231 breast) was > 30200 nM. For the same molecule, the TGI (SR leukemia) was 3680 nM, the TGI (MOLT-4 leukemia) was 4560 nM and the TGI (T-47D breast) was 3940 nM. It also gave a TGI (SF-295 CNS) of 813 nM, a TGI (TK-10 renal) of 8520 nM and a TGI (NCI-H23 lung) of 465 nM. The TGI (IGROV1 ovarian) was 4460 nM, the TGI (SN12C renal) was 779 nM and the TGI (KM12 colon) was 4540 nM. It also gave a TGI (OVCAR-5 ovarian) of 3250 nM, a TGI (SK-MEL-5 melanoma) of 698 nM and a TGI (SNB-75 CNS) of 858 nM. For the same molecule, the TGI (NCI-H460 lung) was 2390 nM, the TGI (A549 NSCLC) was 3020 nM and the TGI (HOP-62 NSCLC) was 2600 nM. It also gave a TGI (UACC-257 melanoma) of 1500 nM, a TGI (A498 renal) of 9440 nM and a TGI (NCI/ADR-RES ovarian) of 5540 nM. The TGI (ACHN renal) was 7960 nM, the TGI (RPMI-8226 leukemia) was > 100000 nM and the TGI (PC-3 prostate) was 11600 nM. For the same molecule, the TGI (UACC-62 melanoma) was 3290 nM, the TGI (M14 melanoma) was 367 nM and the TGI (EKVX NSCLC) was 7460 nM. For the same molecule, the TGI (HL-60(TB) leukemia) was 1150 nM, the TGI (COLO 205 colon) was 2760 nM and the TGI (RXF 393 renal) was 2990 nM. It also gave a TGI (NCI-H226 lung) of 2270 nM, a TGI (LOX IMVI melanoma) of 679 nM and a TGI (OVCAR-4 ovarian) of 2260 nM. The TGI (DU-145 prostate) was 427 nM, the TGI (SK-MEL-28 melanoma) was 1080 nM and the TGI (OVCAR-8 ovarian) was 2720 nM. It also gave a TGI (SK-MEL-2 melanoma) of 4200 nM, a TGI (SNB-19 CNS) of 1620 nM and a TGI (HCT-116 colon) of 1180 nM. It also gave a TGI (SF-539 CNS) of 2250 nM, a TGI (MDA-N) of 352 nM and a TGI (HT29 colon) of 2120 nM. For the same molecule, the TGI (SF-268 CNS) was 4130 nM, the TGI (CAKI-1 renal) was 9540 nM and the TGI (HCC-2998 colon) was 3430 nM. The TGI (OVCAR-3 ovarian) was 2110 nM and the TGI (BT-549 breast) was 2120 nM.
